From patent publication US6987093B2 (priority 2001, dated 2006)
≈ marks a conversion by molar mass, not a printed value. Where “and” joins values, the source holds several entries; their conditions need not be identical. Equal values may be shown once. Read-outs that look alike come from different tables or passages of the source.

Experiments:
[1] = tested on: Streptococcus pyogenes 02C0203; experiment: Murine acute infection (peritonitis) model challenged with Streptococcus pyogenes; type: in vivo, mouse
H. influenzae [2] = experiment: Susceptibility testing of trial H. influenzae isolates; type: cell-based, Haemophilus influenzae; details: NCCLS criteria
From the text: Samples of middle ear fluid were split for storage at a central laboratory and cultured locally. All pathogens isolated locally were subcultured and sent to a central laboratory for confirmation and susceptibility testing, performed by Kirby-Bauer disk-diffusion or MIC testing according to NCCLS standards.
Cultures were taken for antimicrobial susceptibility testing and bacterial species were identified. Current NCCLS approved breakpoints for MICs and zone sizes were applied to all data irrespective of the breakpoint in use at the time of the study. The isolates from the clinical studies were sent to central laboratories for identification and susceptibility determination. The methods for agar diffusion disk tests are those recommended by NCCLS.
The susceptibility breakpoints for azithromycin were defined as follows: […]

[3] = tested on: Haemophilus influenzae 54A1100; experiment: Murine acute infection (peritonitis) model challenged with Haemophilus influenzae; type: in vivo, mouse; details: for PD50: s.c.
H. influenzae [4] = experiment: Single dose azithromycin pediatric AOM trial, subjects with H. influenzae at baseline; type: in vivo, human
From the text: (§1) Children six months to twelve years were enrolled if they had symptoms and signs of acute otitis media (“AOM”) for less than four weeks and middle ear effusion by acoustic reflectometry. Symptoms necessary for enrollment included ear pain or fullness, discharge from the external auditory canal, decreased hearing or fever. On physical examination they must have had one or more of the following: bulging or marked erythema of the tympanic membrane, loss of the normal light reflex or tympanic membrane landmarks, or impaired tympanic mobility on biphasic pneumatic otoscopy. The effusion was to be documented by acoustic reflectometry with an abnormal reading of 3 or higher.
(§2) Samples of middle ear fluid were obtained by tympanocentesis or, in the case of a perforated tympanic membrane, by swab. Middle ear fluid samples were obtained for culture at baseline. […] Children who vomited within thirty minutes of dosing were redosed.
Samples of middle ear fluid were split for storage at a central laboratory and cultured locally.
(§3) A phone contact occurred on study day 5 to assess for adverse events followed by visits on days 10 and 24–28, at which time detailed clinical assessments were made and adverse events were recorded. Definitions included clinical cure (complete resolution of all signs and symptoms of AOM); improvement (partial resolution of signs and symptoms); or failure (no change or worsening of signs and symptoms, or requirement for additional antibiotic therapy for AOM). Any patient considered to have failed therapy was to have a repeat tympanocentesis.
The primary endpoint of the trial was the investigator designated cure rate at Day 24–28 for which a 95% confidence interval was computed using the normal approximation to the binomial distribution. Other endpoints analyzed included the clinical response rate by baseline pathogen at Day 24–28, the overall clinical response at Day 10, the percentage of subjects with individual signs and symptoms, as well as findings from pneumatic otoscopy and acoustic reflectometry. […]

pneumococcal challenge = details: single dose compared with all the other dose regimens; cited from earlier work
H. influenzae 54A1100 = experiment: MIC determination, H. influenzae 54A1100; type: cell-based, Haemophilus influenzae; details: Haemophilus influenzae
Method: MIC Determinations. Streptococcus pneumoniae, S. pyogenes, E. faecalis, and H. influenzae MICs were determined using the broth microdilution procedure recommended by the NCCLS. Test trays were incubated at 35C without carbon dioxide. For testing of streptococci, the cation-adjusted Mueller-Hinton broth was supplemented with 2–3% lysed horse blood. For testing H. influenzae, freshly prepared Haemophilus Test Medium broth was used.
Bacterial Strains. • S. pneumoniae 02J1016, serotype 3, originally isolated from blood culture (strain P 4241) (MLS- and penicillin-susceptible). • S. pyogenes 02C0203, ATCC 12384, group A, type 3 (MLS-susceptible). • E. faecalis 03A1085, vancomycin susceptible clinically derived strain. • H. influenzae 54A1100, (43095 ATCC Fulghum strain) non-serotype B strain originally isolated from otitis media (macrolide and penicillin susceptible). • H. influenzae 54A1218, clinically derived non-serotype B strain (macrolide-susceptible, penicillin-resistant, TEM-1 beta-lactamase).

Mycoplasma pneumoniae = details: single oral 10 mg/kg dose; only one of several macrolides tested; cited from earlier work
S. pneumoniae = experiment: Study 95-001 otitis media, S. pneumoniae as baseline pathogen; type: in vivo, human; details: five patients in azithromycin regimens with S. pneumoniae isolates with intermediate resistance
Method: (§4) Specimens for culture and susceptibility testing were obtained from the infected ear by tympanocentesis within 24 h of start of therapy. […] However, the study was evaluated using the breakpoints in the most recent set of guidelines.
(§5) To be a bacteriological cure, the MITT subject had to have a positive culture from the middle ear for S. pneumoniae, H influenzae, or M. catarrhalis. Eradication was defined as presumed eradication of pretreatment pathogen(s) based on signs/symptoms or unavailability of culturable material. All evaluable patients had only one of the bacterial species present at baseline. There was no bacteriological response data collected for 95–001. However, the clinical outcome by bacterial pathogen at follow-up (approximately 28 days after first visit) was collected. For patients with S. pneumoniae as the baseline pathogen, all treatment arms yielded 100% clinical cure when the investigators' evaluations that were missing are not included in the analysis. […] The comparator drug, ceftriaxone, had no failures out of 9 patients.

M catarrhalis = experiment: Study 95-001 otitis media, M. catarrhalis; type: in vivo, human; details: 3-day dosing regimen
Method: as §4, §5

acute otitis media = experiment: Single 30 mg/kg dose azithromycin pediatric acute otitis media trial (Study A0661015), all subjects
From the text: Craig, W. A., “Postantibiotic effects and the dosing of Macrolides, azalides, and streptogramins”, In: Zinner, S. H. et al. (editor) Expanding Indications for New Macrolides, Azalides, and Streptogramins, New York: Marel Dekker (1997), pp. 27–38.
as §1, §2, §3
The primary endpoint of the trial was the investigator designated cure rate at Day 24–28 for which a 95% confidence interval was computed using the normal approximation to the binomial distribution. Other endpoints analyzed included the clinical response rate by baseline pathogen at Day 24–28, the overall clinical response at Day 10, the percentage of subjects with individual signs and symptoms, as well as findings from pneumatic otoscopy and acoustic reflectometry. Only Streptococcus pneumoniae, Moraxella catarrhalis and Haemophilus influenzae were considered baseline pathogens for the purposes of these analyses.
This trial was an open-label, non-comparative study conducted at twenty-two sites from the United States, Costa Rica, Guatemala and Chile.
Not all strains are equally virulent and the growth rate and kinetics of infection may influence the outcome. In addition, H. influenzae has been a difficult organism to culture from the middle ear.

[5] = oral QD, murine peritonitis model

CC[C@H]1OC(=O)[C@H](C)[C@@H](O[C@H]2C[C@@](C)(OC)[C@@H](O)[C@H](C)O2)[C@H](C)[C@@H](O[C@@H]2O[C@H](C)C[C@H](N(C)C)[C@H]2O)[C@](C)(O)C[C@@H](C)CN(C)[C@H](C)[C@@H](O)[C@]1(C)O [Azithromycin, 9a-aza-9a-methyl-9-deoxo-9a-homoerythromycin A]
Oral PD50 ([1]; Dosing Regimen 1 day): 1.0 (0.6–1.4) mg/kg/day
Oral PD50 ([1]; Dosing Regimen 2 days): 2.5 (1.8–3.3) mg/kg/day
Oral PD50 ([1]; Dosing Regimen 3 days): 3.8 (3.8–3.9) mg/kg/day
Mice Surviving/Total ([1]; mouse, in vivo): 1/10 and 10/10 and 8/10 and 3/10 and 0/10 and 9/10 and 7/10
ED50 One-Day Therapy [1, 5]: 0.78^1 mg/kg/therapy
ED50 Two-Day Therapy [1, 5]: 1.1 mg/kg/therapy
susceptibility of isolated H. influenzae to azithromycin (H. influenzae [2]): susceptible
Oral PD50 ([3]; Dosing Regimen 1 day): 25.3 (14.3–36.2) mg/kg/day
Oral PD50 ([3]; Dosing Regimen 2 days): 49.9 (41.5–58.5) mg/kg/day
Oral PD50 ([3]; Dosing Regimen 3 days): 181.6 (180.1–183.1) mg/kg/day
Mice Surviving/Total ([3]; mouse, in vivo): 0/10 and 6/10 and 10/10 and 9/10 and 1/10 and 5/10
PD50 ([3]; one therapeutic dose (one day regimen)): 25.3 mg/kg
ED50 One-Day Therapy [3, 5]: 30.3^1 mg/kg/therapy
ED50 Three-Day Therapy [3, 5]: 147 mg/kg/therapy
ED50 Two-Day Therapy [3, 5]: 48 mg/kg/therapy
PD50 ([3]; previously tested, standard dosing paradigm (b.i.d. on day 1)): 27 mg/kg
clinical failure (and presumed persistence) rate (H. influenzae [4]; MITT, thirty-nine evaluable H. influenzae strains): 33.3%
clinical cure rate overall with PCR-identified H. influenzae cures added (H. influenzae [4]; TOC, seventeen PCR-identified patients added): 76.8%
clinical outcome at test of cure of patients with H. influenzae identified by PCR only (H. influenzae [4]; seventeen additional patients): clinically cured
survival versus a pneumococcal challenge (pneumococcal challenge): significantly increased survival
MIC (H. influenzae 54A1100; 54A1100, H. influenzae 54A1100): 1.56 µg/mL (≈ 2.08 µM)
MIC (H. influenzae 54A1100; H. influenzae 54A1100, read-out: MIC): 0.5 to 1 µg/mL (≈ 0.668 to 1.34 µM)
efficacy (Mycoplasma pneumoniae): efficacious
clinical outcomes at EOT or follow-up (S. pneumoniae): either “cure” or “improvement”
outcome at follow-up of the two M catarrhalis isolates (M catarrhalis): presumed bacteriological cures
children with acoustic reflectometry scores improved from baseline (acute otitis media; by day 24–28): 83%
children with completely normal acoustic reflectometry readings (acute otitis media; by day 24–28): 53%
patients with complete resolution of baseline symptoms (acute otitis media; by day 28): Ninety-two
patients with impaired tympanic membrane motility (acute otitis media; day 10 (93% at baseline)): 27%
subjects with other objective signs of tympanic membrane disease (acute otitis media; day 24–28): less than 10%
patients with impaired tympanic membrane motility (acute otitis media; day 24–28 (93% at baseline)): 12%
adverse event diarrhea (acute otitis media; single 30 mg/kg oral dose): 3%
adverse event vomiting (acute otitis media; single 30 mg/kg oral dose): 6%
